Test [1] addresses Avi-humanTEAD4 217-434 / Cy5 labeled humanYAP 60-100 (Homo sapiens (Human), UniProt Q15561). The test can be described thus: TR-FRET YAP-TEAD4 in-vitro biochemical assay. In kind it is binding. The following applies: 1 nM Avi-humanTEAD4 217-434, 20 nM Cy5-humanYAP 60-100, 1 h room temperature. (Time-resolved FRET reads energy transfer from a long-lived donor to a nearby acceptor.)

For test [2], the system named is NCI-H2052 Tet-On shYAP_2371 pLenti6 MCAT_Luc cells (YAP-dependent transcription). Kind of test: YAP reporter gene activity assay (MCAT-luciferase), NCI-H2052. In kind it is cell-based. Conditions: Homo sapiens, NCI-H2052, 24 h, 24 hours incubation, BrightGlo luminescence. On the procedure: (§1) This cell line was also transduced with a Tet-pLKO-puro-based construct mediating tetracycline-inducible expression of a short-hairpin directed against the 3′UTR of the YAP1 mRNA (5′-[…]-3′).
(§2) Stock solutions of compounds were prepared at a concentration of 10 mM in DMSO and stored at 4° C. Where necessary to afford a full dose-response curve, the stock solutions were pre-diluted in DMSO to 1'000-fold the desired reduced start concentration. On the day after cell seeding, eleven 2-fold serial dilutions of each compound were dispensed directly into the cell assay plates using a HP 300D non-contact Digital Dispenser (TECAN, Mannedorf, Switzerland). The final concentration of DMSO was normalized to 0.1% in all wells.
The ability of compounds to inhibit YAP-dependent transcription was assessed in NCI-H2052 Tet-On shYAP_2371 pLenti6 MCAT_Luc cells, while specificity (lack of unspecific inhibition of luciferase expression of activity) was assessed in MKN-45/Ubc-luc cells. […] Following incubation for 24 hours at 37° C., compound-mediated modulation of reporter-gene activity was quantified 5 min after addition of 20 μl BrightGlo (Promega, Cat #E2620), by measuring luminescence intensity on a multi-mode plate-reader (TECAN, Männedorf, Switzerland, Integration time 100 ms). For data analysis, the assay background value determined in wells containing medium, but no cells, was subtracted from all data points. Dose-dependent compound effects were expressed as % of vehicle-treated control (luminescence signal produced by cells receiving DMSO only) and IC50s calculated using a four-parametric fit model.
(In a reporter assay the amount or activity of a reporter protein is the signal.)

For test [3], the system named is NCI-H2052 Tet-On shYAP_2371 pLenti6 MCAT_Luc cells. The test can be described thus: Proliferation assay (resazurin), NCI-H2052. In kind it is cell-based. Conditions: Homo sapiens, NCI-H2052, 72 h, 72 hours incubation. The procedure:
as §1, §2
(§3) The functional effect of compounds on cell proliferation was assessed using NCI-H2052 Tet-On shYAP_2371 pLenti6 MCAT_Luc and MKN-45/Ubc-luc cells by quantifying the reducing capacity of live cells using the redox indicator dye resazurin. […] For data analysis, the assay background value determined in wells containing medium, but no cells, was subtracted from all data points. […] The effect of a particular test compound concentration on cell proliferation/viability was expressed as percentage of day 0-corrected fluorescence reading obtained for cells treated with vehicle only (DMSO, final concentration 0.1%), which was set as 100%, whereas the fluorescence reading for wells containing medium only, but no cells, was set as −100%. Compound concentrations leading to half-maximal growth inhibition (GI50) were determined using standard four parameter curve fitting.
On the technique in general: The colour change of resazurin is a common sign of viable cells or microbes.

Test [4] deals with MKN-45/Ubc-luc cells. Kind of test: Proliferation assay (resazurin), MKN-45. The following applies: Homo sapiens, 72 hours incubation. In kind it is cell-based. On the procedure:
As a specificity control, MKN-45 cells were stably transduced with a Ubc-Luc reporter construct, in which constitutive expression of firefly luciferase is driven by the promoter of the ubiquitin C housekeeping gene.
as §2, §3

The subject of test [5] is MKN-45/Ubc-luc cells. The test can be described thus: Reporter gene specificity control (Ubc-luciferase), MKN-45. Conditions: Homo sapiens, MKN-45, 24 h, read-out: Reporter gene assay MKN-45 IC50 [μM], MKN-45/Ubc-luc cells (YAP deleted, specificity control), 24 hours incubation.

Structures are written as SMILES. pIC50: −log10 of the molar value.

Sequence of Avi-humanTEAD4 217-434 / Cy5 labeled humanYAP 60-100 (Q15561 217-434): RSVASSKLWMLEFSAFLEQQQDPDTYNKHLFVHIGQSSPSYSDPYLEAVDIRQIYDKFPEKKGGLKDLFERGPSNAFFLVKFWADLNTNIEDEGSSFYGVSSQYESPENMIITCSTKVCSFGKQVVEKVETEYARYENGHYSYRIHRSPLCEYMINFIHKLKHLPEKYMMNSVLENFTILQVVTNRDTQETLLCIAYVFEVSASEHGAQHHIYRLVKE

The term pIC50 denotes −log10 of the IC50, conventionally taken in molar units. A lower pIC50 goes with a large IC50. For orientation: GI50 means the concentration that inhibits growth by half. Lower therefore signals more potent growth inhibition. Consider `COc1ncc(C(N)=O)c(-c2c(Cl)ccc3c2C[C@@](CN)(c2ccccc2)O3)c1F` (atropisomer, axis not shown) [Example 18, 4-((2S,4S)-2-(Aminomethyl)-5-chloro-2-phenyl-2,3-dihydrobenzofuran-4-yl)-5-fluoro-6-methoxynicotinamide], for which the pIC50 in test [1] is 8.40; in test [2], 6.42. Also, the values for the GI50 in test [3] and in test [4] were 553 nM and greater than 12500 nM, respectively. For the same molecule, the IC50 in test [5] is 19.5 µM.

In the case of `CNc1ccc(C(N)=O)c(-c2c(Cl)ccc3c2C[C@@](CN)(c2ccccc2)O3)c1F` (atropisomer, axis not shown) [Example 20, 2-((2S,4S)-2-(Aminomethyl)-5-chloro-2-phenyl-2,3-dihydrobenzofuran-4-yl)-3-fluoro-4-(methylamino)benzamide], the pIC50 in test [1] was 6.91; in test [2], 5.53. Besides, the figures for the 50% growth inhibitory concentration (GI50) in test [3] and in test [4] were 6880 nM and greater than 10000 nM, respectively. In addition, in test [5], the IC50 was greater than 10 µM.

In the case of `CNC[C@@]1(c2ccccc2)Cc2c(ccc(Cl)c2-c2c(C(N)=O)ccc(OC)c2F)O1` (atropisomer, axis not shown) [Example 21, 2-((2S,4S)-5-Chloro-2-((methylamino)methyl)-2-phenyl-2,3-dihydrobenzofuran-4-yl)-3-fluoro-4-methoxybenzamide], the pIC50 is 8.40 in test [1] and 6.81 in test [2]. Besides, the values for the concentration for 50% growth inhibition (GI50) in test [3] and in test [4] were 247 nM and greater than 10000 nM, respectively. Also, in test [5], the IC50 is greater than 10 µM.

For the molecule `CNC(=O)c1ccc(OC)c(F)c1-c1c(Cl)ccc2c1C[C@@](CN)(c1ccccc1)O2` (atropisomer, axis not shown) [Example 22, 2-((2S,4S)-2-(Aminomethyl)-5-chloro-2-phenyl-2,3-dihydrobenzofuran-4-yl)-3-fluoro-4-methoxy-N-methylbenzamide], the values for the pIC50 in test [1] and in test [2] were 8.05 and 6.80, respectively. Further, the concentration for 50% growth inhibition (GI50) is 256 nM in test [3] and greater than 10000 nM in test [4]. For the same molecule, in test [5], the IC50 is greater than 20 µM.

With `COc1ccc(C(=O)Nc2cccnc2)c(-c2c(Cl)ccc3c2C[C@@](CN)(c2ccccc2)O3)c1F` (atropisomer, axis not shown) [Example 25, 2-((2S,4S)-2-(aminomethyl)-5-chloro-2-phenyl-2,3-dihydrobenzofuran-4-yl)-3-fluoro-4-methoxy-N-(pyridin-3-yl)benzamide], the figures for the pIC50 in test [1] and in test [2] were 8.30 and 6.97, respectively. Further, the GI50 in test [3] was 145 nM; in test [4], greater than 10000 nM. For the same molecule, the IC50 in test [5] is greater than 10 µM.

In the case of `CNC[C@@]1(c2ccccc2)Cc2c(ccc(Cl)c2-c2c(C(=O)NC)ccc(OC)c2F)O1` (atropisomer, axis not shown) [Example 26, 2-((2S,4S)-5-Chloro-2-((methylamino)methyl)-2-phenyl-2,3-dihydrobenzofuran-4-yl)-3-fluoro-4-methoxy-N-methylbenzamide], the pIC50 in test [1] was 7.68; in test [2], 6.84. The GI50 in test [3] was 310 nM; in test [4] it was greater than 10000 nM. Moreover, in test [5], the IC50 was greater than 20 µM.

Turning to `COc1ccc(C(N)=O)c(-c2c(Cl)ccc3c2C[C@@](CN)(c2cscn2)O3)c1F` (atropisomer, axis not shown) [Example 29, 2-((2R,4S)-2-(Aminomethyl)-5-chloro-2-(thiazol-4-yl)-2,3-dihydrobenzofuran-4-yl)-3-fluoro-4-methoxybenzamide], the pIC50 was 8.00 in test [1] and 5.70 in test [2]. Further, the figures for the GI50 in test [3] and in test [4] were 1850 nM and greater than 10000 nM, respectively. For the same molecule, the IC50 in test [5] is greater than 10 µM.

`NC[C@@]1(c2cccc3c2OC(F)(F)O3)Cc2c(ccc(Cl)c2-c2c(F)cccc2C(N)=O)O1` (atropisomer, axis not shown) [Example 30, 2-((2S,4S)-2-(aminomethyl)-5-chloro-2-(2,2-difluorobenzo[d][1,3]dioxol-4-yl)-2,3-dihydrobenzofuran-4-yl)-3-fluorobenzamide]: the negative logarithm of the IC50 (pIC50) was 6.84 in test [1] and 5.32 in test [2]. In addition, the values for the 50% growth inhibitory concentration (GI50) in test [3] and in test [4] were 6840 nM and greater than 10000 nM, respectively. Also, the IC50 in test [5] was greater than 10 µM.

As for `COc1ccc(C(N)=O)c(-c2c(Cl)ccc3c2C[C@@](CN)(c2ccccc2F)O3)c1F` (atropisomer, axis not shown) [Example 31, 2-((2S,4S)-2-(Aminomethyl)-5-chloro-2-(2-fluorophenyl)-2,3-dihydrobenzofuran-4-yl)-3-fluoro-4-methoxybenzamide], the pIC50 in test [1] is 8.52; in test [2], 6.46. Besides, the 50% growth inhibitory concentration (GI50) in test [3] is 346 nM; in test [4] it was greater than 10000 nM. In addition, the IC50 in test [5] is greater than 10 µM.

On to `COc1ccc(C(N)=O)c(-c2c(Cl)c(F)cc3c2C[C@@](CN)(c2ccccc2)O3)c1F` (atropisomer, axis not shown) [Example 33, 2-((2S,4S)-2-(aminomethyl)-5-chloro-6-fluoro-2-phenyl-2,3-dihydrobenzofuran-4-yl)-3-fluoro-4-methoxybenzamide], for which the results for the negative logarithm of the IC50 (pIC50) in test [1] and in test [2] were 8.52 and 6.79, respectively. Moreover, the figures for the 50% growth inhibitory concentration (GI50) in test [3] and in test [4] were 161 nM and greater than 10000 nM, respectively. Moreover, the IC50 in test [5] was greater than 10 µM.

Turning to `NC[C@@]1(c2ccccc2)Cc2c(cc(F)c(Cl)c2-c2c(C(N)=O)ccc(OC(F)F)c2F)O1` (atropisomer, axis not shown) [Example 35, 2-((2S,4S)-2-(aminomethyl)-5-chloro-6-fluoro-2-phenyl-2,3-dihydrobenzofuran-4-yl)-4-(difluoromethoxy)-3-fluorobenzamide], the pIC50 in test [1] was 8.05; in test [2], 6.56. Besides, the GI50 in test [3] was 310 nM; in test [4] it was greater than 10000 nM. In addition, in test [5], the IC50 was greater than 10 µM.

In the case of `COCCOc1ccc(C(N)=O)c(-c2c(Cl)c(F)cc3c2C[C@@](CN)(c2ccccc2)O3)c1F` (atropisomer, axis not shown) [Example 37, 2-((2S,4S)-2-(aminomethyl)-5-chloro-6-fluoro-2-phenyl-2,3-dihydrobenzofuran-4-yl)-3-fluoro-4-(2-methoxyethoxy)benzamide], the negative logarithm of the IC50 (pIC50) is 8.70 in test [1] and 7.48 in test [2]. Besides, the values for the GI50 in test [3] and in test [4] were 52 nM and greater than 10000 nM, respectively. For the same molecule, in test [5], the IC50 was greater than 10 µM.

Consider `NC[C@@]1(c2ccccc2)Cc2c(cc(F)c(Cl)c2-c2c(C(N)=O)ccc(OCCO)c2F)O1` (atropisomer, axis not shown) [Example 38, 2-((2S,4S)-2-(aminomethyl)-5-chloro-6-fluoro-2-phenyl-2,3-dihydrobenzofuran-4-yl)-3-fluoro-4-(2-hydroxyethoxy)benzamide], for which the pIC50 in test [1] was 8.70; in test [2], 7.62. For the same molecule, the GI50 in test [3] is 29 nM; in test [4] it was greater than 10000 nM. For the same molecule, the IC50 in test [5] is greater than 10 µM.

With `NC[C@@]1(c2ccccc2)Cc2c(cc(F)c(Cl)c2-c2cc(SC(F)(F)CO)ccc2C(N)=O)O1` (atropisomer, axis not shown) [Example 39, 2-((2S,4R)-2-(aminomethyl)-5-chloro-6-fluoro-2-phenyl-2,3-dihydrobenzofuran-4-yl)-4-((1,1-difluoro-2-hydroxyethyl)thio)benzamide], the figures for the pIC50 in test [1] and in test [2] were 6.99 and 5.67, respectively. In addition, the GI50 in test [3] was 2830 nM; in test [4] it was greater than 10000 nM. In addition, the IC50 in test [5] is greater than 10 µM.

With `COc1ncc(C(N)=O)c(-c2c(Cl)c(F)cc3c2C[C@@](CN)(c2ccccc2)O3)c1F` (atropisomer, axis not shown) [Example 42, 4-((2S,4S)-2-(aminomethyl)-5-chloro-6-fluoro-2-phenyl-2,3-dihydrobenzofuran-4-yl)-5-fluoro-6-methoxynicotinamide], the pIC50 in test [1] is 8.22; in test [2], 6.41. The GI50 worked out at 493 nM in test [3] and 9400 nM in test [4]. For the same molecule, the IC50 in test [5] was greater than 10 µM.

The values above are taken from US12083101B2, “Biaryl derivatives as YAP/TAZ-TEAD protein-protein interaction inhibitors” (Novartis AG, priority 2020, dated 2024).
